Assay results reported in patent US12139499B2, “Heteroaryl compounds for treating Huntington's disease” (PTC THERAPEUTICS, INC., priority 2018, dated 2024).

Tested on: Endogenous Huntingtin Protein
Test: Endogenous Huntingtin Protein Assay (ELISA-based MSD electrochemiluminescence)
Format: cell-based
Conditions: Table 1
Method in brief: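 Sandwich MSD electrochemiluminescence immunoassay. Capture used MW1 (expanded polyglutamine) or MAB2166 antibody coated at 1 μg/mL overnight at 4 °C. Samples were bound overnight at 4 °C, then a rabbit monoclonal detection antibody and SULFO-TAG anti-rabbit, each at 0.25 μg/mL, were applied for 1 h at room temperature.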

SMILES | IC50 [nM]
Cc1cc(-c2ncc3nc(N(C)C4CC(C)(C)NC(C)(C)C4)sc3n2)cc2cn(C)nc12 [Compound 122, 5-(2,7-dimethyl-2H-indazol-5-yl)-N-methyl-N-(2,2,6,6-tetramethylpiperidin-4-yl)[1,3]thiazolo[5,4-d]pyrimidin-2-amine] | 100 to 500
CN(c1nc2cnc(-c3cc(C#N)c4nn(C)cc4c3)nc2s1)C1CC(C)(C)NC(C)(C)C1 [Compound 123, 2-methyl-5-{2-[methyl(2,2,6,6-tetramethylpiperidin-4-yl)amino][1,3]thiazolo[5,4-d]pyrimidin-5-yl}-2H-indazole-7-carbonitrile] | ≤ 100
CN(c1nc2cnc(-c3cc(F)c4nn(C)cc4c3)nc2s1)C1CC(C)(C)NC(C)(C)C1 [Compound 124, 5-(7-fluoro-2-methyl-2H-indazol-5-yl)-N-methyl-N-(2,2,6,6-tetramethylpiperidin-4-yl)[1,3]thiazolo[5,4-d]pyrimidin-2-amine] | ≤ 100
Cc1cn2nc(-c3cc(F)c4nc(N5CCNC6(CC6)C5)sc4c3)cc(C)c2n1 [Compound 125, 6-[2-(4,7-diazaspiro[2.5]oct-7-yl)-4-fluoro-1,3-benzothiazol-6-yl]-2,8-dimethylimidazo[1,2-b]pyridazine] | 100 to 500
Cn1cc2cc(-c3cc(F)c4nc(C5CCNCC5)sc4c3)cc(F)c2n1 [Compound 126, 4-fluoro-6-(7-fluoro-2-methyl-2H-indazol-5-yl)-2-(piperidin-4-yl)-1,3-benzothiazole] | ≤ 100
Cc1cn2nc(-c3cc(F)c4nc(N(C)C5CC(C)(C)NC(C)(C)C5)sc4c3)cc(C)c2n1 [Compound 127, 6-(2,8-dimethylimidazo[1,2-b]pyridazin-6-yl)-4-fluoro-N-methyl-N-(2,2,6,6-tetramethylpiperidin-4-yl)-1,3-benzothiazol-2-amine] | ≤ 100
CN(c1nc2ccc(-c3cc(F)c4nn(C)cc4c3)nc2s1)C1CC(C)(C)NC(C)(C)C1 [Compound 128, 5-(7-fluoro-2-methyl-2H-indazol-5-yl)-N-methyl-N-(2,2,6,6-tetramethylpiperidin-4-yl)[1,3]thiazolo[5,4-b]pyridin-2-amine] | 100 to 500
Cc1cn2cc(-c3ccc4nc(N(C)C5CC(C)(C)NC(C)(C)C5)sc4n3)ccc2n1 [Compound 129, N-methyl-5-(2-methylimidazo[1,2-a]pyridin-6-yl)-N-(2,2,6,6-tetramethylpiperidin-4-yl)[1,3]thiazolo[5,4-b]pyridin-2-amine] | 500 to 1000
CN(c1nc2ncc(-c3ccc(-c4cn[nH]c4)cc3O)nc2s1)C1CC(C)(C)NC(C)(C)C1 [Compound 130, 2-{2-[methyl(2,2,6,6-tetramethylpiperidin-4-yl)amino][1,3]thiazolo[4,5-b]pyrazin-6-yl}-5-(1H-pyrazol-4-yl)phenol] | ≤ 100
Cc1cc(-c2cnc3nc(N(C)C4CC(C)(C)NC(C)(C)C4)sc3n2)cc2cn(C)nc12 [Compound 131, 6-(2,7-dimethyl-2H-indazol-5-yl)-N-methyl-N-(2,2,6,6-tetramethylpiperidin-4-yl)[1,3]thiazolo[4,5-b]pyrazin-2-amine] | ≤ 100
Cc1cn2nc(-c3cc(F)c4nc(N5CC(C)NC(C)C5)sc4c3)cc(C)c2n1 (stereo not shown) [Compound 132, 6-[2-(3,5-dimethylpiperazin-1-yl)-4-fluoro-1,3-benzothiazol-6-yl]-2,8-dimethylimidazo[1,2-b]pyridazine] | ≤ 100
Cc1cn2nc(-c3cc(F)c4nc(OC5CC(C)(C)NC(C)(C)C5)sc4c3)cc(C)c2n1 [Compound 133, 6-{4-fluoro-2-[(2,2,6,6-tetramethylpiperidin-4-yl)oxy]-1,3-benzothiazol-6-yl}-2,8-dimethylimidazo[1,2-b]pyridazine] | ≤ 100
Cc1cc(-c2cc(O)c3nc(C4CCNCC4)sc3c2)cc2cn(C)nc12 [Compound 134, 6-(2,7-dimethyl-2H-indazol-5-yl)-2-(piperidin-4-yl)-1,3-benzothiazol-4-ol] | 100 to 500
Cc1cn2nc(-c3cc(F)c4nc(OC5CC(C)NC(C)C5)sc4c3)cc(C)c2n1 (stereo not shown) [Compound 135, 6-{2-[(2,6-dimethylpiperidin-4-yl)oxy]-4-fluoro-1,3-benzothiazol-6-yl}-2,8-dimethylimidazo[1,2-b]pyridazine] | ≤ 100
Cc1nc2ccc(-c3cc4sc(N(C)C5CC(C)(C)NC(C)(C)C5)nc4cn3)cn2n1 [Compound 136, N-methyl-6-(2-methyl[1,2,4]triazolo[1,5-a]pyridin-6-yl)-N-(2,2,6,6-tetramethylpiperidin-4-yl)[1,3]thiazolo[4,5-c]pyridin-2-amine] | 100 to 500
CN(c1nc2cnc(-c3ccc(-c4cn[nH]c4)cc3O)cc2s1)C1CC(C)(C)NC(C)(C)C1 [Compound 137, 2-{2-[methyl(2,2,6,6-tetramethylpiperidin-4-yl)amino][1,3]thiazolo[4,5-c]pyridin-6-yl}-5-(1H-pyrazol-4-yl)phenol] | 3000 to 9000
Cc1cn2cc(-c3ccc4nc(N(C)C5CC(C)(C)NC(C)(C)C5)sc4c3)cc(C#N)c2n1 [Compound 138, 2-methyl-6-{2-[methyl(2,2,6,6-tetramethylpiperidin-4-yl)amino]-1,3-benzothiazol-6-yl}imidazo[1,2-a]pyridine-8-carbonitrile] | ≤ 100

SMILES | IC50 [nM]
Cc1cn2nc(-c3ccc4nc(C5CCNCC5)sc4c3)cc(C)c2n1 [Compound 139, 2,8-dimethyl-6-[2-(piperidin-4-yl)-1,3-benzothiazol-6-yl]imidazo[1,2-b]pyridazine] | ≤ 100
CN(c1nc2ncc(-c3cc(C#N)c4nn(C)cc4c3)nc2s1)C1CC(C)(C)NC(C)(C)C1 [Compound 140, 2-methyl-5-{2-[methyl(2,2,6,6-tetramethylpiperidin-4-yl)amino][1,3]thiazolo[4,5-b]pyrazin-6-yl)-2H-indazole-7-carbonitrile] | ≤ 100
Cc1cn2nc(-c3cnc4nc(N(C)C5CC(C)(C)NC(C)(C)C5)sc4n3)ccc2n1 [Compound 141, N-methyl-6-(2-methylimidazo[1,2-b]pyridazin-6-yl)-N-(2,2,6,6-tetramethylpiperidin-4-yl)[1,3]thiazolo[4,5-b]pyrazin-2-amine] | ≤ 100
CN(c1nc2cnc(-c3ccc(-c4cn[nH]c4)cc3O)nc2s1)C1CC(C)(C)NC(C)(C)C1 [Compound 142, 2-{2-[methyl(2,2,6,6-tetramethylpiperidin-4-yl)amino][1,3]thiazolo[5,4-d]pyrimidin-5-yl}-5-(1H-pyrazol-4-yl)phenol] | 100 to 500
Cc1cn2nc(-c3cc(F)c4nc(N5CCC(O)CC5)sc4c3)cc(C)c2n1 [Compound 143, 1-[6-(2,8-dimethylimidazo[1,2-b]pyridazin-6-yl)-4-fluoro-1,3-benzothiazol-2-yl]piperidin-4-ol] | 100 to 500
Cc1cn2nc(-c3cc(F)c4nc(C5CCN[C@H](C)C5)sc4c3)ccc2n1 (stereo partly drawn) [Compound 144, 6-{4-fluoro-2-[(2R)-2-methylpiperidin-4-yl]-1,3-benzothiazol-6-yl}-2-methylimidazo[1,2-b]pyridazine] | ≤ 100
COc1cc(-c2cc(F)c3nc(C4=CCNCC4)sc3c2)nn2cc(C)nc12 [Compound 145, 6-[4-fluoro-2-(1,2,3,6-tetrahydropyridin-4-yl)-1,3-benzothiazol-6-yl]-8-methoxy-2-methylimidazo[1,2-b]pyridazine] | ≤ 100
Cc1cc(-c2ccc3nc(N(C)C4CCNC(C)(C)C4)sc3c2)cc2cn(C)nc12 (stereo not shown) [Compound 146, 6-(2,7-dimethyl-2H-indazol-5-yl)-N-(2,2-dimethylpiperidin-4-yl)-N-methyl-1,3-benzothiazol-2-amine] | 100 to 500
Cc1cn2cc(-c3cc4sc(N(C)C5CC(C)(C)NC(C)(C)C5)nc4cn3)cc(F)c2n1 [Compound 147, 6-(8-fluoro-2-methylimidazo[1,2-a]pyridin-6-yl)-N-methyl-N-(2,2,6,6-tetramethylpiperidin-4-yl)[1,3]thiazolo[4,5-c]pyridin-2-amine] | ≤ 100
CN(c1nc2ccc(-c3cc(C#N)c4nn(C)cc4c3)nc2s1)C1CC(C)(C)NC(C)(C)C1 [Compound 148, 2-methyl-5-{2-[methyl(2,2,6,6-tetramethylpiperidin-4-yl)amino][1,3]thiazolo[5,4-b]pyridin-5-yl}-2H-indazole-7-carbonitrile] | ≤ 100
CN(c1nc2ccc(-c3ccc(-c4cn[nH]c4)cc3O)nc2s1)C1CC(C)(C)NC(C)(C)C1 [Compound 149, 2-{2-[methyl(2,2,6,6-tetramethylpiperidin-4-yl)amino][1,3]thiazolo[5,4-b]pyridin-5-yl}-5-(1H-pyrazol-4-yl)phenol] | 100 to 500
CN(c1nc2ncc(-c3cc(F)c4nn(C)cc4c3)nc2s1)C1CC(C)(C)NC(C)(C)C1 [Compound 150, 6-(7-fluoro-2-methyl-2H-indazol-5-yl)-N-methyl-N-(2,2,6,6-tetramethylpiperidin-4-yl)[1,3]thiazolo[4,5-b]pyrazin-2-amine] | ≤ 100
COc1cc(-c2cc(F)c3nc(C4CCNCC4)sc3c2)nn2cc(C)nc12 [Compound 151, 6-[4-fluoro-2-(piperidin-4-yl)-1,3-benzothiazol-6-yl]-8-methoxy-2-methylimidazo[1,2-b]pyridazine] | ≤ 100
Cc1cn2cc(-c3cc(F)c4nc(C5CCNCC5)sc4c3)cc(F)c2n1 [Compound 152, 4-fluoro-6-(8-fluoro-2-methylimidazo[1,2-a]pyridin-6-yl)-2-(piperidin-4-yl)-1,3-benzothiazole] | ≤ 100
Cn1cc2cc(-c3cc(Cl)c4nc(C5=CCNCC5)sc4c3)cc(F)c2n1 [Compound 153, 4-chloro-6-(7-fluoro-2-methyl-2H-indazol-5-yl)-2-(1,2,3,6-tetrahydropyridin-4-yl)-1,3-benzothiazole] | 1000 to 3000
Cn1cc2cc(-c3cc(Cl)c4nc(C5=CCNCC5)sc4c3)cc(C#N)c2n1 [Compound 154, 5-[4-chloro-2-(1,2,3,6-tetrahydropyridin-4-yl)-1,3-benzothiazol-6-yl]-2-methyl-2H-indazole-7-carbonitrile] | 1000 to 3000
CN(c1nc2ccc(-c3ccc4nn(C)cc4c3)cc2s1)C1CCNC(C)(C)C1 (stereo not shown) [Compound 155, N-(2,2-dimethylpiperidin-4-yl)-N-methyl-6-(2-methyl-2H-indazol-5-yl)-1,3-benzothiazol-2-amine] | 100 to 500
